Source: publication PMC11760092, “Pretreatment with serine protease inhibitors impairs Leishmania amazonensis survival on macrophages” (Parasites & Vectors, 2025)
pIC50: −log10 of the molar value. Read-outs that look alike come from different tables or passages of the source.

How the values were obtained:
[1] = test system: Leishmania amazonensis-RFP promastigotes; assay: Viability of promastigotes after 1 h of treatment with inhibitors; assay type: cell-based; details: 1 h treatment, washed; for viability of promastigotes after 1 h of treatment, compared with the control: 0 h, 24 h, 48 h and 72 h of incubation
Description: Leishmania amazonensis-RFP promastigotes were treated with different concentrations of inhibitors during 1 h at 25 °C and were washed with PBS. Then, these cells had their viability determined by fluorescence analysis using a spectrofluorimeter (time = 0 h) and were also reincubated in complete RPMI medium for subsequent analysis of cell viability after 24 h, 48 h, and 72 h (times = 24 h, 48 h, and 72 h) by fluorescence analysis.

[2] = test system: L. amazonensis in peritoneal macrophages; assay: Promastigote pretreatment and infection of peritoneal macrophages; assay type: cell-based, Leishmania amazonensis; details: for entry of promastigotes into macrophages: promastigotes pretreated 1 h, 0 h after 4 h interaction
Description: (§1) Leishmania amazonensis-RFP promastigotes were pretreated with different concentrations of inhbitors during 1 h at 25 °C. The cells were washed with PBS and used to infect peritoneal macrophages from BALB/c mice (10:1 ratio), not pretreated or pretreated with 0.5 ng/mL IFN-γ overnight, in 24-well plates. After 4 h of interaction, the plates were washed with PBS and (1) scraped to remove attached cells and read using a spectrofluorimeter (time = 0 h) or (2) incubated at 33 °C with 5% CO2 for 24 h, 48 h, and 72 h for later scraping and reading (times = 24 h, 48 h, and 72 h). Three experiments were performed, each one with three replicates.
The same experiment was repeated, but using 13 mm glass coverslips in 24-well plates. The fixation with ethanol and staining with Giemsa were performed. Subsequently, the slides were examined in an optical microscope (Olympus BX53, Shinjuku, Tokyo, Japan) and photographed (Olympus DP73, Shinjuku, Tokyo, Japan).

[3] = test system: L. amazonensis in peritoneal macrophages prestimulated with IFN-γ; assay: Promastigote pretreatment and infection of macrophages prestimulated with IFN-γ; assay type: cell-based, Leishmania amazonensis; details: macrophages prestimulated with 0.5 ng/mL IFN-γ overnight; promastigotes pretreated 1 h
Description: as §1

[4] = test system: NO production by host macrophages; assay: Determination of nitric oxide (NO) levels (Griess method); assay type: cell-based, BALB/c mice; details: supernatant of macrophages infected with promastigotes pretreated for 1 h
Description: Supernatant from cultures of L. amazonensis-infected macrophages, in which promastigotes were pretreated or not with PF-429242 or TPCK, was collected, and NO levels were determined by the Griess method. NO levels were determined in aliquots of 50 µL of the supernatant, to which 50 µL of the Griess reagent were added (Griess Reagent: 1% sulfanilamide in 2.5% of H3PO4 + 0.1% N-1-diidrocloride naftiletilenodiamine in 2.5% H3PO4), in a 96-well microplate. Nitrite content was quantified by comparison with a sodium nitrite standard curve. The absorbance was measured at 540 nm using a spectrophotometer (Multiskan EX, Thermo Electron Corporation, Vantaa, Finland). The assays were carried out in duplicate and three independent experiments were realized. Macrophages prestimulated with 0.5 ng/mL IFN-γ overnight and infected with L. amazonensis promastigotes without pretreatment were used as positive controls.

[5] = test system: L. amazonensis serine proteases; assay: Enzymatic assay on promastigote lysate with substrate ABZ-V-F-R-S-L-K-Q EDDnp; assay type: biochemical, Leishmania amazonensis; details: 2.5 µM inhibitor, first 10 min
Description: The enzymatic assay was conducted in a final volume of 200 µL per well, containing 1 µM of substrate, supernatant of lysate of 3.7 × 10^6 parasites, 2.5 µM of inhibitors (PF-429242 and TPCK) or 3 µM of E-64 in Tris-buffered pH 8. Substrate ABZ-V-F-R-S-L-K-Q EDDnp was used, which was provided by Dr. Luiz Juliano Neto from the Department of Biophysics of UNIFESP-EPM and is described in Alves, L.C. et al.. The lysate was prepared with promastigotes in stationary phase of growth, washed three times with PBS pH 7.2, and in the last wash it was resuspended in Tris-buffered pH 8 with 1% NP40. The parasites were submitted to five rapid freeze–thaw cycles in liquid nitrogen. The lysate was centrifuged at 20,000g for 10 min at […]. The supernatant was stored at −20 °C until use. The read was carried out using the spectrofluorimeter SoftMax M3 with excitation/emission of 320/420 nm.

[6] = test system: peritoneal macrophages from BALB/c mice; set-up: method as in PMID 35678670, PMID 33584607, PMID 35890269; details: 72 h of incubation; previously published data (*); cited from earlier work
[7] = test system: Leishmania amazonensis-WT promastigotes; set-up: method as in PMID 35678670, PMID 33584607, PMID 35890269; details: 72 h of incubation; previously published data (*); read-out: Antileishmanial effect in Leishmania amazonensis IC50 Promastigote; cited from earlier work
[8] = test system: L. amazonensis (RFP) amastigotes; set-up: method as in PMID 35678670, PMID 33584607, PMID 35890269; details: 72 h of incubation; previously published data (*); read-out: Antileishmanial effect in Leishmania amazonensis IC50 Amastigote; cited from earlier work
[9] = test system: L. amazonensis promastigotes; set-up: method as in PMID 17726617; details: 100 µM, cited from earlier work
[10] = test system: L. donovani serine proteases; set-up: method as in PMID 26040107; details: concentration not given; cited from earlier work
[11] = test system: L. donovani promastigotes; set-up: method as in PMID 26040107; details: concentration not given; cited from earlier work
[12] = test system: L. amazonensis promastigotes and amastigotes; details: cited from earlier work
L. amazonensis = details: mice infected with L. amazonensis; cited from earlier work
[13] = test system: peritoneal macrophages from BALB/c mice; assay: Cytotoxicity assay (MTT); assay type: cell-based; details: 72 h of incubation; MTT; interval in brackets
Description: To determinate the toxicity of the inhibitors on mammalian cells, peritoneal macrophages from BALB/c mice, obtained by peritoneal lavage, in concentration of 2 × 10^6 macrophages/mL, were adhered in 96-well culture plates overnight at 37 °C with 5% CO2. The inhibitors were then added in different concentrations and incubated for 72 h at 37 °C and 5% CO2. Cell viability was also assessed by the MTT method. Cytotoxic concentration of 50% of macrophages (CC50) values were calculated using GraPadPrism 8 software. Three independent experiments in triplicate were performed.

[14] = test system: Leishmania amazonensis-WT promastigotes; assay: Antipromastigote assay (MTT); assay type: cell-based; details: for pIC50: 72 h of incubation, interval in brackets, read-out: Antileishmanial effect in Leishmania amazonensis IC50 Promastigote
Description: Leishmania amazonensis–WT promastigotes, in the logarithmic phase of growth, were transferred to 96-well culture plates (final concentration 2 × 10^6 cells/mL) and exposed to different concentrations of inhbitors during 72 h at 25 °C. The cell viability was evaluated by the 3-(4,5-dimethylthiazol-2-yl)-2,5 diphenyltetrazolium bromide (MTT) method (obtained from Sigma-Aldrich). The inhibitory concentration of 50% of parasite growth (IC50) values were calculated using GraphPad Prism 8 software […]. Three independent experiments in triplicate were performed. Amphotericin B (Cristália, São Paulo, SP, Brazil) was used as a reference drug.

[15] = test system: L. amazonensis (RFP) amastigotes; assay: Antiamastigote assay (RFP fluorescence, infected peritoneal macrophages); assay type: cell-based; details: 72 h of incubation; interval in brackets; read-out: Antileishmanial effect in Leishmania amazonensis IC50 Amastigote
Description: Peritoneal macrophages from BALB/c mice were obtained by peritoneal lavage and distributed in 24-well plates at 2 × 10^6 cells/mL in RPMI medium (Cultilab) containing 10% FBS and a 0.5% penicillin and streptomycin solution (complete RPMI). The plates were incubated for 1 h at 37 °C and 5% CO2, washed with phosphate-buffered saline (PBS), and then reincubated in complete RPMI medium overnight. The cells were washed again with PBS and infected with stationary growth phase L. amazonensis (RFP) promastigotes at a 10:1 ratio for 4 h at 33 °C. The plates were washed with PBS and the inhibitors were added at different concentrations and incubated for 72 h. After this time, each well was scraped to remove attached cells and the reading was taken with a spectrofluorimeter (FLx800, BioTek Instruments, Winooski, VT, USA) at 530 nm and 590 nm of excitation and emission, respectively. […] All assays were performed in triplicate and repeated three times. Results were calculated as the percentage of amastigote survival compared with the nontreated control group, and IC50 values were determined using GraphPad Prism 8 software.

[16] = test system: L. amazonensis serine proteases; set-up: method as in PMID 25583728; details: cited from earlier work

## Cc1ccc(S(=O)(=O)N[C@@H](Cc2ccccc2)C(=O)CCl)cc1 [TPCK, N-p-tosyl-L-phenylalanine chloromethyl ketone]
[1]; 30 µM, after 72 h of incubation
  viability of promastigotes after 1 h of treatment: slight reduction in the viability
[1]
  viability of promastigotes after 1 h of treatment, compared with the control: not able to change cell viability
[2]; pretreated parasites (PF-429242 3.2 µM, TPCK 30 µM)
  conversion of promastigotes into amastigotes: no difficulty was observed in conversion
[2]; pretreatment with PF-429242 3.2 µM or TPCK 30 µM, 48 h and 72 h after infection
  number of intracellular amastigotes (Giemsa, Supplementary Fig. 1): reduction in the number of amastigotes
[2]
  entry of promastigotes into macrophages: did not alter the entry
[2]; promastigotes pretreated 1 h with 30 µM or 15 µM, 24 h and 48 h after infection
  survival of parasites within macrophages compared with the negative control: reduced survival
[2]; promastigotes pretreated 1 h with 30 µM, 15 µM or 7.5 µM, 72 h after infection
  survival of parasites within macrophages compared with the negative control: reduced survival
[3]
  intracellular survival of L. amazonensis: impairs the intracellular survival
[4]
  NO production versus control group: no difference in NO production
[5]
  enzymatic activity of L. amazonensis serine proteases: able to inhibit the enzymatic activity
[6]
  CC50: 139 µM
[7]
  pIC50: 4.84
[8]
  pIC50: 4.85
[9]; after 4 h, 24 h, 48 h and 72 h of incubation
  viability of L. amazonensis promastigotes: reducing cell viability
[10]
  inhibition of the proteolytic activity: 52%
[11]
  cell viability of L. donovani promastigotes (reduction): only did so after 15 h and 20 h
[12]; L. amazonensis
  growth of promastigotes and intracellular amastigotes: growth inhibition of promastigotes and intracellular amastigotes
L. amazonensis
  lesion size and parasite load: reduction in lesion size and parasite load

## O=S(=O)(F)Cc1ccccc1 [PMSF]
[13]
  CC50: 269 µM
[14]
  pIC50: < 3.70
[15]
  pIC50: < 3.70
[1]
  viability of promastigotes after 1 h of treatment, compared with the control: did not change the viability
[2]
  entry of promastigotes into macrophages: did not change the entry
[2]; promastigotes pretreated 1 h with 200 µM or 6.25 µM, up to 72 h
  permanence and survival of amastigotes within host cells: did not alter the permanence and survival

## Cc1ccc(S(=O)(=O)N[C@@H](CCCCN)C(=O)CCl)cc1 [TLCK]
[13]
  CC50: 104 µM
[14]
  pIC50: 4.28
[14]; promastigotes, 6.25 µM
  inhibition of the parasite's viability: around 10%
[15]
  pIC50: 3.85
[1]
  viability of promastigotes after 1 h of treatment, compared with the control: did not change the viability
[2]
  entry of promastigotes into macrophages: occurred similarly to the control
[2]; promastigotes pretreated 1 h with 100 µM, 48 h and 72 h of infection
  survival of parasites within macrophages: slightly reduced
[9]
  viability of L. amazonensis promastigotes: did not reduce promastigote viability
[10]
  inhibition of the proteolytic activity: 18%
[11]
  cell viability of L. donovani promastigotes (reduction): only did so after 15 h and 20 h

## epoxy-α-lapachone
[16]
  inhibition of L. amazonensis serine proteases: inhibited L. amazonensis serine proteases
[12]
  effect on promastigotes and amastigotes of L. amazonensis: effective against promastigotes and amastigotes
L. amazonensis
  lesion size: reduction of the lesion size
